We go through 17 compounds from patent publication US20230365585A1, “BENZODIAZEPINE DERIVATIVES USEFUL IN TREATING A RESPIRATORY SYNCYTIAL VIRUS INFECTION” (priority 2020, published 2023).

A value given as a limit tells only on which side of the number the result lay.

The test system of one data set is RSV A2. As to the kind of experiment: RSV plaque reduction assay. The settings on record: human respiratory syncytial virus, HepG2, 48 h, Hep-G2 cells, RSV A2, 2 days; mean of at least two experiments. It counts as cell-based, RSV (RSV A2 ECACC, 0709161v). The procedure: Compounds were subjected to RSV plaque reduction assays according to the following protocol.
Hep-G2 cells (ECACC, 85011430) were passaged in flasks and seeded in 24-well plates in DMEM containing antibiotics and supplemented with 10% FBS. During inoculation and subsequent incubation, cells were cultured in DMEM containing 2% FBS. 100 plaque forming unit/well of RSV (RSV A2 ECACC, 0709161v) was mixed with eight serial dilutions of compound. Subsequently, 100 µL of the virus/compound mixtures was added to confluent Hep-G2 cell monolayers. The cells and virus/compound mixtures were incubated at 37° C. in a humidified 5% CO2 incubator for 2 h prior to removal of the inoculum and addition of 1 mL of overlay (DMEM containing 2% FBS and 0.8% CMC) containing compound dilutions. The cells and were incubated at 37° C. in a humidified 5% CO2 incubator for 2 days.
Cells were washed with PBS before adding 75%/25% v/v EtOH/MeOH, for 3 min. Fix ative was removed and plates were washed with PBS. A pre-titrated amount of the primary antibody was added in 200 µL PBS/2% milk powder, and plates incubated for 90 min at 37° C. The plates were washed 3 times with PBS/0.05% Tween20 before addition of rabbit anti-goat horse radish peroxidase in 200 µL PBS/2% milk powder, and incubated for 1 h at 37° C. Following three wash steps with PBS/0.05% Tween20, 200 µL ready-to-use TrueBlue was added and plates were incubated at rt for 10-15 min before washing with water. After removal of water, plates were air-dried in the dark.
(§1) Plates were scanned and analysed using the Immunospot S6 Macro analyser, which is equipped with BioSpot analysis software for counting immunostained plaques (virospots). Plaque counts were used to calculate % infection relative to the mean of the plaque count in the virus control wells for RSV. […] Plaque EC50 and cell toxicity CC50 values are a mean of at least two experiments and figures are rounded to whole units.

A short description of another data set: Cell cytotoxicity CC50. The settings on record: human; mean of at least two experiments. It is filed as cell-based.
Source text: as §1

Usually EC50 stands for the concentration that produces a half-maximal response. Read a low EC50 as greater potency. Broadly, the CC50 is the concentration at which the toxic effect on the cells reaches its halfway point. In the data set with RSV A2, `CCNc1ccc(-c2nn3c(c2C(=O)N[C@H]2N=C(c4ccccc4)c4ccccc4NC2=O)OC(C)CCC3)c(F)n1` (single isomer, unassigned) [Example 10-1, (5R*)-2-[6-(ethylamino)-2-fluoropyridin-3-yl]-5-methyl-N-[(3S)-2-oxo-5-phenyl-1,3-dihydro-1,4-benzodiazepin-3-yl]-5,6,7,8-tetrahydropyrazolo[5,1-b][1,3]oxazepine-3-carboxamide] yielded an EC50 of 26 nM. The same compound yielded a CC50 in “Cell cytotoxicity CC50” of over 25 µM.

For the compound `CCNc1ccc(-c2nn3c(c2C(=O)N[C@H]2N=C(c4ccccc4)c4cccc(F)c4NC2=O)O[C@H](C)CCC3)c(F)n1` (single isomer, unassigned) [Example 11-1], the EC50 with RSV A2 came to 22 nM. Further, the cytotoxic concentration (CC50) in “Cell cytotoxicity CC50” was over 25 µM.

For `CCNc1ccc(-c2nn3c(c2C(=O)N[C@H]2N=C(c4ccccc4)c4cccc(F)c4NC2=O)OC(C)CCC3)c(F)n1` (single isomer, unassigned) [Example 11-2, (5S*)-2-[6-(ethylamino)-2-fluoropyridin-3-yl]-N-[(3S)-9-fluoro-2-oxo-5-phenyl-1,3-dihydro-1,4-benzodiazepin-3-yl]-5-methyl-5,6,7,8-tetrahydropyrazolo[5,1-b][1,3]oxazepine-3-carboxamide], it took 9 nM to reach a half-maximal effect in the data set on RSV A2 (EC50). Further, the CC50 in the data set “Cell cytotoxicity CC50” is over 25 µM.

In the data set on RSV A2, `CC(C)Nc1ccc(-c2nn3c(c2C(=O)N[C@H]2N=C(c4ccccc4)c4ccccc4NC2=O)OC(C)CCC3)c(F)n1` (single isomer, unassigned) [Example 12-1, (5R*)-2-[2-fluoro-6-(propan-2-ylamino)pyridin-3-yl]-5-methyl-N-[(3S)-2-oxo-5-phenyl-1,3-dihydro-1,4-benzodiazepin-3-yl]-5,6,7,8-tetrahydropyrazolo[5,1-b][1,3]oxazepine-3-carboxamide] displayed an EC50 of 35 nM. The half-maximal cytotoxic concentration (CC50) in the data set “Cell cytotoxicity CC50” was over 25 µM.

`CC(C)Nc1ccc(-c2nn3c(c2C(=O)N[C@H]2N=C(c4ccccc4)c4cccc(F)c4NC2=O)OC(C)CCC3)c(F)n1` (single isomer, unassigned) [Example 13-1, (5R*)-N-[(3S)-9-fluoro-2-oxo-5-phenyl-1,3-dihydro-1,4-benzodiazepin-3-yl]-2-[2-fluoro-6-(propan-2-ylamino)pyridin-3-yl]-5-methyl-5,6,7,8-tetrahydropyrazolo[5,1-b][1,3]oxazepine-3-carboxamide] displayed an EC50 in the data set with RSV A2 of 26 nM. In “Cell cytotoxicity CC50”, this compound registered a CC50 of over 25 µM.

As for `CC1CCCOc2c(C(=O)NC3N=C(c4ccccc4)c4ccccc4NC3=O)c(-c3ccccc3F)nn21` (single isomer, unassigned) [Example 14-1, (8R*)-2-(2-Fluorophenyl)-8-methyl-N-(2-oxo-5-phenyl-1,3-dihydro-1,4-benzodiazepin-3-yl)-5,6,7,8-tetrahydropyrazolo[5,1-b][1,3]oxazepine-3-carboxamide], in the data set with RSV A2, the EC50 was determined as 61 nM. Moreover, the CC50 in “Cell cytotoxicity CC50” is over 25 µM.

On to `CC1CCCOc2c(C(=O)NC3N=C(c4ccccc4)c4cccc(F)c4NC3=O)c(-c3ccccc3F)nn21` (single isomer, unassigned) [Example 15-1, (8R*)-N-(9-fluoro-2-oxo-5-phenyl-1,3-dihydro-1,4-benzodiazepin-3-yl)-2-(2-fluorophenyl)-8-methyl-5,6,7,8-tetrahydropyrazolo[5,1-b][1,3]oxazepine-3-carboxamide], for which, in the data set with RSV A2, a half-maximal effect (EC50) was put at 47 nM. For the same compound, in the data set “Cell cytotoxicity CC50”, the CC50 is over 25 µM.

Regarding `CC1CCCn2nc(-c3ccc(F)cc3F)c(C(=O)N[C@H]3N=C(c4ccccc4)c4ccccc4NC3=O)c2O1` (single isomer, unassigned) [Example 16-1, (5R*)-2-(2,4-difluorophenyl)-5-methyl-N-[(3S)-2-oxo-5-phenyl-1,3-dihydro-1,4-benzodiazepin-3-yl]-5,6,7,8-tetrahydropyrazolo[5,1-b][1,3]oxazepine-3-carboxamide], the EC50 in the data set on RSV A2 is 28 nM. For the same compound, the CC50 in “Cell cytotoxicity CC50” is over 25 µM.

In turn, `CC1CCCn2nc(-c3ccc(F)cc3F)c(C(=O)N[C@H]3N=C(c4ccccc4)c4cccc(F)c4NC3=O)c2O1` (single isomer, unassigned) [Example 17-1, (5R*)-2-(2,4-difluorophenyl)-N-[(3 S)-9-fluoro-2-oxo-5-phenyl-1,3-dihydro-1,4-benzodiazepin-3-yl]-5-methyl-5,6,7,8-tetrahydropyrazolo[5,1-b][1,3]oxazepine-3-carboxamide] had an EC50 with RSV A2 of 19 nM. This compound also yielded a CC50 in the data set “Cell cytotoxicity CC50” of over 25 µM.

In the data set with RSV A2, `O=C(N[C@H]1N=C(c2ccccc2)c2cccc(F)c2NC1=O)c1c(-c2ccccc2F)nn2c1O[C@@H]1CC[C@H]2C1` (single isomer, unassigned) [Example 19-1, (1S*,8R*)-N-[(3 S)-9-fluoro-2-oxo-5-phenyl-2,3-dihydro-1H-1,4-benzodiazepin-3-yl]-4-(2-fluorophenyl)-7-oxa-2,3-diazatricyclo[6.2.1.0^2,6]undeca-3,5-diene-5-carboxamide] displayed an EC50 of 49 nM. This compound also gave a CC50 in “Cell cytotoxicity CC50” of over 25 µM.

Take `O=C(N[C@H]1N=C(c2ccccc2)c2cccc(F)c2NC1=O)c1c(-c2ccccc2F)nn2c1O[C@H]1CC[C@@H]2C1` (single isomer, unassigned) [Example 19-2, (1R*,8S*)-N-[(3 S)-9-fluoro-2-oxo-5-phenyl-2,3-dihydro-1H-1,4-benzodiazepin-3-yl]-4-(2-fluorophenyl)-7-oxa-2,3-diazatricyclo[6.2.1.0^2,6]undeca-3,5-diene-5-carboxamide]: the midpoint of the response in the data set with RSV A2, the EC50, lay at 53 nM. For the same compound, the CC50 in the data set “Cell cytotoxicity CC50” was over 25 µM.

On to `CCC1CCCn2nc(-c3ccccc3F)c(C(=O)N[C@H]3N=C(c4ccccc4)c4ccccc4NC3=O)c2O1` (single isomer, unassigned) [Example 24-1, (5R*)-5-ethyl-2-(2-fluorophenyl)-N-[(3S)-2-oxo-5-phenyl-2,3-dihydro-1H-1,4-benzodiazepin-3-yl]-5H,6H,7H,8H-pyrazolo[3,2-b][1,3]oxazepine-3-carboxamide], for which the EC50 in the data set with RSV A2 was found to be 111 nM. In the data set “Cell cytotoxicity CC50”, this compound registered a CC50 of over 25 µM.

In the data set on RSV A2, `CCC1CCCn2nc(-c3ccccc3F)c(C(=O)N[C@H]3N=C(c4ccccc4)c4cccc(F)c4NC3=O)c2O1` (single isomer, unassigned) [Example 25-1, (5R*)-5-ethyl-2-(2-fluorophenyl)-N-[(3S)-9-fluoro-2-oxo-5-phenyl-1,3-dihydro-1,4-benzodiazepin-3-yl]-5,6,7,8-tetrahydropyrazolo[5,1-b][1,3]oxazepine-3-carboxamide] registered an EC50 of 93 nM. Besides, the CC50 in the data set “Cell cytotoxicity CC50” was over 25 µM.

`CCC1CCCn2nc(-c3ccc(C)nc3)c(C(=O)N[C@H]3N=C(c4ccccc4)c4ccccc4NC3=O)c2O1` (single isomer, unassigned) [Example 26-1, (5R*)-5-ethyl-2-(6-methylpyridin-3-yl)-N-[(3 S)-2-oxo-5-phenyl-2,3-dihydro-1H-1,4-benzodiazepin-3-yl]-5H,6H,7H,8H-pyrazolo[3,2-b][1,3]oxazepine-3-carboxamide] showed an EC50 in the data set on RSV A2 of 314 nM. This compound yielded a CC50 in the data set “Cell cytotoxicity CC50” of over 25 µM.

`CCC1CCCn2nc(-c3ccc(C)nc3)c(C(=O)N[C@H]3N=C(c4ccccc4)c4cccc(F)c4NC3=O)c2O1` (single isomer, unassigned) [Example 27-1, (5R*)-5-ethyl-N-[(3S)-9-fluoro-2-oxo-5-phenyl-2,3-dihydro-1H-1,4-benzodiazepin-3-yl]-2-(6-methylpyridin-3-yl)-5H,6H,7H,8H-pyrazolo[3,2-b][1,3]oxazepine-3-carboxamide] returned a concentration for a half-maximal effect (EC50) in the data set on RSV A2 of 295 nM. The same compound registered a CC50 in “Cell cytotoxicity CC50” of over 25 µM.

`CCc1ccc(-c2nn3c(c2C(=O)N[C@H]2N=C(c4ccccc4)c4cccc(F)c4NC2=O)O[C@@H]2CC[C@H]3C2)cn1` (single isomer, unassigned) [Example 30-1, (1S*,8R*)-4-(6-ethylpyridin-3-yl)-N-[(3S)-9-fluoro-2-oxo-5-phenyl-2,3-dihydro-1H-1,4-benzodiazepin-3-yl]-7-oxa-2,3-diazatricyclo[6.2.1.02,6]undeca-3,5-diene-5-carboxamide] displayed an EC50 with RSV A2 of 61 nM. Further, in the data set “Cell cytotoxicity CC50”, the CC50 is over 25 µM.

Regarding `CCc1ccc(-c2nn3c(c2C(=O)N[C@H]2N=C(c4ccccc4)c4cccc(F)c4NC2=O)O[C@H]2CC[C@@H]3C2)cn1` (single isomer, unassigned) [Example 30-2, (1R*,8S*)-4-(6-ethylpyridin-3-yl)-N-[(3S)-9-fluoro-2-oxo-5-phenyl-2,3-dihydro-1H-1,4-benzodiazepin-3-yl]-7-oxa-2,3-diazatricyclo[6.2.1.02,6]undeca-3,5-diene-5-carboxamide], in the data set on RSV A2, the EC50 was found to be 63 nM. In addition, the CC50 in “Cell cytotoxicity CC50” is over 25 µM.
